Test results taken from patent US20020048572A1, “Treatment of hypertriglyceridemia and other conditions using LXR modulators” (priority 2000, published 2002).
“Also recorded” adds a separate entry of the source.

Tests used:
HepG2 cells [1] = assay: Northern blot analysis of HepG2 cells treated with LXRα ligand, with or without cyclohexamide; assay type: cell-based
Experimental: HepG2 cells were treated with 24,25-epoxycholesterol in the presence or absence of 50 μg/ml cyclohexamide in DMEM F12 media supplemented with 10% lipid-free serum for 18 hours.
Total RNA was then prepared using the TRIzol® method (Chomczynski and Saachi (1987) Anal. Biochem. 162:156). Electrophoresis and Northern blot analysis were performed using the NorthernMax™ system (Ambion). Ribonucleotide probes were used to identify the RNA transcripts.

[2] = tested on: HepG2, 293, and CaCO2 cells; assay: Northern blot analysis of three cell lines treated with oxysterols in presence of cyclohexamide; assay type: cell-based; conditions: 30 μM, 50 μg/ml cyclohexamide, 18 hours
Experimental: To ascertain whether or not the 24,25-epoxycholesterol-mediated activation of SREBP-1 expression is cell-specific, three cell lines were tested. HepG2, 293, and CaCO2 cells were treated with either DMSO, 30 μM of 24,25-epoxycholesterol, 30 μM of 22(R)-hydroxycholesterol, or 30 μM 22(S)-hydroxycholesterol in the presence of 50 μg/ml cyclohexamide in DMEM F12 media supplemented with 10% lipid-free serum for 18 hours.
Total RNA was then prepared using the Trizol method. Electrophoresis and Northern blot analysis were performed using the NorthernMax™ system (Ambion). Ribonucleotide probes were used to identify RNA transcripts.

LXRα = biological target: T1, LXRα (Homo sapiens, UniProt Q13133); conditions: SPA
T1 sequence (Q13133 1-447): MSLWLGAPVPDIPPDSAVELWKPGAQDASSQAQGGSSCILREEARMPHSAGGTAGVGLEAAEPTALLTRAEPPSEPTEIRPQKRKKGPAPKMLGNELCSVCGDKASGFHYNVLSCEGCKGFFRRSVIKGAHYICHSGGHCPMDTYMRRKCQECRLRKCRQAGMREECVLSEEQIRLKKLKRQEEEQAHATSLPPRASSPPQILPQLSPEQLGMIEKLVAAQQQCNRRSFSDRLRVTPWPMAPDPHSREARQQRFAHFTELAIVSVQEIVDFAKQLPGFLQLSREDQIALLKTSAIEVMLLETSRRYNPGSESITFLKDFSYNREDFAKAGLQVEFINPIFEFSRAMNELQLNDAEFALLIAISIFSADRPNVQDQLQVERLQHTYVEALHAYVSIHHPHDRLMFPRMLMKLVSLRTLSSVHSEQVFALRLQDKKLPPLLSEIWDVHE

[3] = biological target: T2, LXRα ligand-binding domain (Homo sapiens, UniProt Q13133); assay: biochemical
T2 sequence (Q13133 209-447 limits assumed): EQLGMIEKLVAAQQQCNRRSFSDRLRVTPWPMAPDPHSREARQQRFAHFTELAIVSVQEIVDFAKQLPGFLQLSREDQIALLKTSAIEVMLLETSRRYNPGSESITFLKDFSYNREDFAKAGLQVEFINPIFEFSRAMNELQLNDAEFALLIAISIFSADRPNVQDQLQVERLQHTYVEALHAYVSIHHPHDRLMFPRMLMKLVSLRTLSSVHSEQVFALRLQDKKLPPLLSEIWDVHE

HepG2 cells [4] = assay: Northern blot analysis of T0314407-dosed HepG2 cells with and without cycloheximide; assay type: cell-based; conditions: HepG2, with 50 μg/mL cycloheximide, 18 h
Experimental: FIG. 9. Northern blot analysis. Total RNA was isolated from the tissues indicated from mice (A,B,C) and hamsters (D). The numerical data shown with each figure represents the fold increase (+) or decrease (−) of expression relative to corresponding vehicle-treated controls. (E) HepG2 cells were incubated in culture media with or without cycloheximide (cyclohex). For the Northern blot analysis from cycloheximide-treated HepG2 cells, tissue cultures were incubated in cell culture media with 10% lipid-deficient serum with or without 50 μg/mL cycloheximide. T0314407 was added after 30 min of cycloheximide treatment, cells were harvested 18 h later, and total RNA was extracted as described.

[5] = HepG2, presence and absence of 50 μg/ml cyclohexamide, 18 hours

Structure (SMILES) | expression of SREBP-2 (HepG2 cells [1]; HepG2, 18 hours) | expression of negative control GAPDH (HepG2 cells [1]; HepG2, 18 hours) | expression of SREBP-1 mRNA (HepG2 cells [1]; [5]) | expression of fatty acid synthase (HepG2 cells [1]; [5]) | expression of GAPDH [2] | expression of SREBP-2 [2] | SREBP-1 expression ([2]; all three cell lines) | competition with binding of radiolabeled T0314407 to LXRα (LXRα) | EC50 [3] [nM] | agonist-mediated increase in levels of FAS mRNA (HepG2 cells [4]) | induction of SREBP-1 gene expression (HepG2 cells [4])
C[C@H](CC[C@@H]1OC1(C)C)[C@H]1CC[C@H]2[C@@H]3CC=C4C[C@@H](O)CC[C@]4(C)[C@H]3CC[C@]12C [24,25-epoxycholesterol, 24(S),25-epoxycholesterol] | not affected | not affected | stimulated; also recorded: activates | stimulated | not significantly enhanced | not significantly enhanced | activates | competed | 300 |  | 
CN(c1ccc(C(O)(C(F)(F)F)C(F)(F)F)cc1)S(=O)(=O)c1ccccc1 [T0314407, N-methyl-N-[4-(2,2,2-trifluoro-1-hydroxy-1-trifluoromethyl-ethyl)-phenyl]-benzenesulfonamide] |  |  |  |  |  |  |  |  |  | arrested | persisted
